Holding throughout (test): inhibition of tumour cell growth, NCI panel, 48 h
For assay [1], the system named is ACHN renal.
Assay [2] relates to CCRF-CEM leukemia.
Assay [3] concerns HT29 colon.
Assay [4] has as its system M14 melanoma.
Assay [5] deals with NCI/ADR-RES ovarian.
Assay [6] deals with OVCAR-4 ovarian.
Assay [7] relates to RPMI-8226 leukemia.
Assay [8] deals with SF-539 CNS.
Assay [9] deals with RXF 393 renal.
Assay [10] concerns SNB-75 CNS.

Drawing on PubChem BioAssay (NCI), this text covers TGI and GI50 for 13 compounds.

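Method: 48-hour compound exposure of cells in 96-well plates, five concentrations, linear interpolation of endpoints. GI50 marks 50% less growth. The concentration for full growth arrest is given as TGI.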

For the compound `CC(/C=C/c1ccc([N+](=O)[O-])o1)=N/N1CC(CN2CCOCC2)OC1=O` (stereo unspecified), the TGI in [1] was 34.2 µM; in assay [2], 47.3 µM; in assay [3], more than 100 µM; in [4], 40.3 µM; in assay [5], 95.9 µM; in assay [6] it was 29.7 µM. For the same compound, the figures for the TGI in [7] and in assay [8] were 41.9 µM and 48.8 µM, respectively.
As to `CCOc1ccc(/C=C/[N+](=O)[O-])cc1`, the GI50 in [1] is 12 µM; in assay [2] it was 3.23 µM; in [3], 2320 nM; in [4], 2060 nM; in assay [5] it was 33 µM; in [6], 23.4 µM. Besides, the GI50 in [7] is 2140 nM; in assay [9], 1790 nM; in [8], 2350 nM; in assay [10] it was 13 µM. For the same compound, the TGI in assay [1] was 24.3 µM; in assay [2], 52.3 µM; in [3], 5.27 µM; in [4], 4.24 µM; in assay [5], more than 100 µM; in [6], more than 100 µM. Also, the TGI in [7] was determined as 6.17 µM; in assay [9], 3.56 µM; in [8], 6.4 µM; in assay [10], 30.9 µM.
Regarding `CC(C)=CC(=O)OC1C2C(C)C(=O)OC2C(O)C(C)C2C=CC(=O)C21C` (stereo unspecified), the TGI in [2] was found to be 8.18 µM; in assay [3] it was 7.94 µM; in assay [5], 32.5 µM; in assay [6], 6.42 µM; in [7] it was 11.7 µM; in assay [9], 3.68 µM. Further, the TGI in assay [8] amounted to 9.5 µM; in assay [10] it was 6.67 µM.
As for `O=C(Nc1ccc(Cl)cc1)/C(Cc1cccc[n+]1[O-])=N\Nc1ccc([N+](=O)[O-])cc1[N+](=O)[O-]`, the TGI in assay [1], in [2], in assay [4], in assay [6], in assay [7] and in [9] was more than 100 µM each time. The TGI in [8] and in [10] was more than 100 µM in each case.
For the compound `Cc1cccc2c(N)c3cccc(C(=O)NCCN(C)C)c3nc12`, the TGI in assay [1] was 6.75 µM; in assay [2], 0.0324 µM; in assay [4] it was 0.422 µM; in assay [5], 4.74 µM; in [6], 18 µM; in [7], 0.128 µM. For the same compound, the results for the TGI in assay [9] and in [10] were 0.479 µM and 0.615 µM, respectively.
`COc1ccc(/C=N/NC(=O)NCCCN(C)C)cc1`: the TGI in assay [1], in [2], in assay [3], in assay [9] and in [8] was more than 100 µM throughout.
Consider `O=C1Nc2ccccc2Nc2nc3cccccc-3c21`, for which the TGI in assay [1], in assay [2], in assay [3], in assay [4], in assay [6] and in assay [7] was more than 100 µM each time. Also, the TGI in [9], in [8] and in assay [10] was more than 100 µM in each case.
As for `CN1CCN(Cc2ccc(NC(=O)c3ccc(C#N)c(C#Cc4cnc(N)c5ncccc45)c3)cc2C(F)(F)F)CC1`, the values for the GI50 in [1], in [7] and in assay [8] were 1.69 µM, 2740 nM and 1520 nM, respectively. Moreover, the values for the TGI in assay [1], in assay [7] and in assay [8] were 3.15 µM, 8.59 µM and 3.06 µM, respectively.
In the case of `c1ccc2c(c1)nc1n2CSC1`, the TGI in assay [1], in assay [2], in [3], in assay [4], in assay [7] and in assay [8] was more than 100 µM in each case. The same compound gave a TGI in assay [10] of more than 100 µM.
Regarding `CCOP(=O)(OCC)C(Cc1ccc(OC)c(OC)c1)N=C(c1ccccc1)c1ccccc1` (stereo unspecified), the TGI in assay [1] is more than 100 µM; in assay [2] it was 96.9 µM; in assay [3] it was more than 100 µM; in assay [4], more than 100 µM; in assay [5], more than 100 µM; in assay [6], more than 100 µM. The TGI in [7] was 44.3 µM; in [9] it was more than 100 µM; in [8], more than 100 µM; in [10], 81.1 µM.
As for `COc1c2c(cc3c(CCc4ccccc4)cc(=O)oc13)CCC(C)(C)O2`, the TGI in assay [1], in [2], in assay [3], in assay [4], in assay [7] and in [9] was more than 100 µM in each case. Further, the TGI in [10] was more than 100 µM.
On to `CC1(C)CCc2cc3c(-c4ccccc4)cc(=O)oc3cc2O1`, for which the TGI in [1], in [2], in [3], in assay [4], in assay [7] and in assay [8] was more than 100 µM in each case. In addition, the TGI in assay [10] amounted to 71.5 µM.
Regarding `Cc1nc2ccccc2c(=O)n1CC(=O)O`, the TGI in assay [2], in assay [3], in [5], in assay [6], in assay [7] and in [9] was more than 100 µM each time. Further, the TGI in assay [8] and in assay [10] was more than 100 µM throughout.
